Broadly, the EC50 is the concentration at which the effect is half-maximal. For orientation: IC50 means the concentration needed to halve the response being measured. The term bioavailability denotes the share of a dose that reaches the circulation, judged against a reference dose that is usually intravenous. What is called half-life is how long it takes for the measured level to halve. Usually AUC(0-t) stands for exposure summed from dosing to a finite time, without extrapolation to infinity. As usually defined, the clearance is a measure of how efficiently the substance is removed, as volume per time. In general, AUC(0-inf) refers to total exposure, with the tail of the curve extrapolated. In general, Cmax refers to the maximum level reached in the sampled fluid or tissue. The Tmax is the time from dosing to the highest level.

The text below walks through data of ChEMBL document CHEMBL5634145, “Discovery of novel amidobenzimidazole derivatives as orally available small molecule modulators of stimulator of interferon genes for cancer immunotherapy” (Eur J Med Chem, 2023).

Data set [1] can be described thus: Agonist activity at STING (unknown origin).
A short description of data set [2]: Metabolic stability at phase I in human liver microsomes assessed as remaining activity at 1 uM incubated for 30 mins in presence of NADPH by LC-MS/MS analysis. Conditions: read-out: Stability. The format is ADME, Microsome. For orientation: Liver microsomes are a subcellular fraction often used to study metabolism.
Data set [3] is described as follows: Stability in human plasma assessed as remaining activity at 5 uM incubated for 4 hrs by LC-MS/MS analysis. The format is ADME, cell-free. Conditions: read-out: Stability.
Data set [4] has as its system RAW264.7. Briefly: Cytotoxicity against mouse RAW264.7 cells assessed as reduction in cell viability at 0 to 80 uM incubated for 24 hrs by CellTiter 96 aqueous one solution assay. The format is toxicity, cell-based. As to conditions: raw264.7, 24 h, dose 0-80 µM.
The nature of data set [5]: Plasma protein binding in human. The format is ADME, cell-free. Conditions: read-out: PPB (converted).
For data set [6], the target named is Cytochrome P450 2C9 (Homo sapiens, UniProt P11712). Briefly: Inhibition of CYP2C9 in human liver microsomes using tolbutamide as substrate preincubated for 5 min followed by substrate and NADPH addition and measured after 20 mins by LC-MS/MS analysis. The format is ADME, Microsome.
Data set [7] concerns THP1-Dual. The experiment in a line: Cytotoxicity against human THP1-Dual cells assessed as reduction in cell viability at 0 to 50 uM incubated for 24 hrs by CellTiter 96 aqueous one solution assay. The format is toxicity, cell-based. Conditions: dose 0-50 µM.
The target in data set [8] is Cytochrome P450 2D6 (Homo sapiens, UniProt P10635). The experiment in a line: Inhibition of CYP2D6 in human liver microsomes using dextromethorphan as substrate preincubated for 5 min followed by substrate and NADPH addition and measured after 20 mins by LC-MS/MS analysis. The format is ADME, Microsome.
Data set [9] in a line: Oral bioavailability in ICR mouse at 20 mg/kg administered via oral gavage by LC-MS/MS analysis. The format is ADME, organism-based. As to conditions: in vivo.
Data set [10] is described as follows: Half life in ICR mouse at 20 mg/kg, po administered via oral gavage by LC-MS/MS analysis. The format is ADME, organism-based. As to conditions: in vivo.
Data set [11] is described as follows: AUClast in ICR mouse at 20 mg/kg, po administered via oral gavage by LC-MS/MS analysis. The format is ADME, organism-based. As to conditions: in vivo.
A short description of data set [12]: Stability in mouse plasma assessed as remaining activity at 5 uM incubated for 4 hrs by LC-MS/MS analysis. As to conditions: read-out: Stability. The format is ADME, cell-free.
A short description of data set [13]: Clearance in ICR mouse at 5 mg/kg, iv by LC-MS/MS analysis. The format is ADME, organism-based. Conditions: in vivo.
Data set [14] in a line: AUC (0 to infinity) in ICR mouse at 5 mg/kg, iv by LC-MS/MS analysis. Conditions: in vivo. The format is ADME, organism-based.
Data set [15] is described as follows: Metabolic stability at phase I in mouse liver microsomes assessed as remaining activity at 1 uM incubated for 30 mins in presence of NADPH by LC-MS/MS analysis. The format is ADME, Microsome. Conditions: read-out: Stability.
Data set [16] is described as follows: Plasma protein binding in mouse. As to conditions: read-out: PPB (converted). The format is ADME, cell-free.
The nature of data set [17]: Cytotoxicity against human THP1-Dual KO-STING cells assessed as cell viability incubated for 24 hrs by CellTiter 96 aqueous one solution assay relative to control. The format is toxicity, cell-based. Set-up: concentration or dose not given beside the values. As to conditions: read-out: Activity.
Data set [18] in a line: Half life in ICR mouse at 5 mg/kg, iv by LC-MS/MS analysis. The format is ADME, organism-based. Conditions: in vivo.
Data set [19] in a line: AUClast in ICR mouse at 5 mg/kg, iv by LC-MS/MS analysis. The format is ADME, organism-based. As to conditions: in vivo.
Data set [20] addresses T1, Cytochrome P450 1A2 (Homo sapiens, UniProt P05177).
T1 sequence (P05177 whole entry): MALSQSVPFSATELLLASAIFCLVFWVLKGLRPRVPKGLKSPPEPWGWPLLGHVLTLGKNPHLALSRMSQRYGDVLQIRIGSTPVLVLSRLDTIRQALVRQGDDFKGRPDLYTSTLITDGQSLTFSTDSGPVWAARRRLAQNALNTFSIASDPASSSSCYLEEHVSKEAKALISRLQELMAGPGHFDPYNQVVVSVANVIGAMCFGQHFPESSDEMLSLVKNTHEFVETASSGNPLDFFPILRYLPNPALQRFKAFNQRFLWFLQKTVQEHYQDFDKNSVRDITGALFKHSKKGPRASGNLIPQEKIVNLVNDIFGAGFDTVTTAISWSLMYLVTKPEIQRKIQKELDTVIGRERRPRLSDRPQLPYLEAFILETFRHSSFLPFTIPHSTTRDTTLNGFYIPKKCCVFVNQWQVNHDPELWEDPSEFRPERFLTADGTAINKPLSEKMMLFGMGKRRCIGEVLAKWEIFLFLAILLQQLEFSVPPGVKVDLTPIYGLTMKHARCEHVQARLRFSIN
The experiment in a line: Inhibition of CYP1A2 in human liver microsomes using phenacetin as substrate preincubated for 5 min followed by substrate and NADPH addition and measured after 20 mins by LC-MS/MS analysis. The format is ADME, Microsome.

A short description of data set [21]: Cmax in ICR mouse at 20 mg/kg, po administered via oral gavage by LC-MS/MS analysis. The format is ADME, organism-based. As to conditions: in vivo.
The nature of data set [22]: Volume of distribution at steady state in ICR mouse at 5 mg/kg, iv by LC-MS/MS analysis. As to conditions: in vivo, read-out: Vdss. The format is ADME, organism-based.
Data set [23] deals with Voltage-gated inwardly rectifying potassium channel KCNH2 (Homo sapiens, UniProt Q12809). The experiment in a line: Inhibition of hERG by non-electrophysiological analysis. The format is toxicity. A general note: Block of hERG is tested as a sign of cardiac risk.
A short description of data set [24]: Tmax in ICR mouse at 20 mg/kg, po administered via oral gavage by LC-MS/MS analysis. The format is ADME, organism-based. As to conditions: in vivo.
Data set [25] can be described thus: Toxicity in BALB/c mouse implanted with mouse 4T1 cells assessed as body weight loss at 16 mg/kg, po administrated every other day for 6 times and measured after 12 days. The format is organism-based. As to conditions: in vivo, 288 h, time 12 day.
Data set [26] has as its target Cytochrome P450 2C19 (Homo sapiens, UniProt P33261). The experiment in a line: Inhibition of CYP2C19 in human liver microsomes using S-Mephenytoin as substrate preincubated for 5 min followed by substrate and NADPH addition and measured after 20 mins by LC-MS/MS analysis. The format is ADME, Microsome.
A short description of data set [27]: AUC (0 to infinity) in ICR mouse at 20 mg/kg, po administered via oral gavage by LC-MS/MS analysis. The format is ADME, organism-based. Conditions: in vivo.
The nature of data set [28]: Cytotoxicity against wild type human THP1-Dual cells assessed as cell viability incubated for 24 hrs by CellTiter 96 aqueous one solution assay relative to control. Set-up: concentration or dose not given beside the values. Conditions: read-out: Activity. The format is toxicity, cell-based.
In data set [29] the target is Cytochrome P450 3A4 (Homo sapiens, UniProt P08684). The experiment in a line: Inhibition of CYP3A4 in human liver microsomes using […] as substrate preincubated for 5 min followed by substrate and NADPH addition and measured after 20 mins by LC-MS/MS analysis. The format is ADME, Microsome.
Sequence of Cytochrome P450 3A4 (P08684 whole entry): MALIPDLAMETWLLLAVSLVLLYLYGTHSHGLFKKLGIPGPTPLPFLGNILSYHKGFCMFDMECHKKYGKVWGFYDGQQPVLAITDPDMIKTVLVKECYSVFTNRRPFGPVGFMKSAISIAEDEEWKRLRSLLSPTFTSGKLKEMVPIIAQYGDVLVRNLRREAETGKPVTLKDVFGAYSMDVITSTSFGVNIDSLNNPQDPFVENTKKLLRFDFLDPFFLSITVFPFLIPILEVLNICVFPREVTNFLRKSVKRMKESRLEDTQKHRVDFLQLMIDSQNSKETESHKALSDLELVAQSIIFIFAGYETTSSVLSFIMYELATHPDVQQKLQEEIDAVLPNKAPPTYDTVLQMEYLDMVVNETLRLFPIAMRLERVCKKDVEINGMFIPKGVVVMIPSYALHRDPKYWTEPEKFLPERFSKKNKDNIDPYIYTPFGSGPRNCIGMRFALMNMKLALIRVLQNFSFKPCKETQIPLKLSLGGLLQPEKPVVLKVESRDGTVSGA

Sequence of Cytochrome P450 2C19 (P33261 whole entry): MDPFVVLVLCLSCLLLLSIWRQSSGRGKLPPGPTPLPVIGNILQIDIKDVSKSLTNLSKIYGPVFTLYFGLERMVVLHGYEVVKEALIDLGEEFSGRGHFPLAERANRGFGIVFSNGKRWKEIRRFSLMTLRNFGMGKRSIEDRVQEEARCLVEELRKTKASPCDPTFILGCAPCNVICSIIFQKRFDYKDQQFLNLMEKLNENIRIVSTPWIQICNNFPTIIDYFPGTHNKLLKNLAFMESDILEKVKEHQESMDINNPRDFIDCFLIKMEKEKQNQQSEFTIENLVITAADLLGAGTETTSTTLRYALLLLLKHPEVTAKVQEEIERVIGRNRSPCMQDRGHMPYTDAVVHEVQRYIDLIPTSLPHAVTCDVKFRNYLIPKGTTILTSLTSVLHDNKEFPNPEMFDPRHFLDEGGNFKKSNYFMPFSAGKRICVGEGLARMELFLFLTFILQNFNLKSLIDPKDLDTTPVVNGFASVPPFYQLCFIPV
Sequence of Cytochrome P450 2C9 (P11712 whole entry): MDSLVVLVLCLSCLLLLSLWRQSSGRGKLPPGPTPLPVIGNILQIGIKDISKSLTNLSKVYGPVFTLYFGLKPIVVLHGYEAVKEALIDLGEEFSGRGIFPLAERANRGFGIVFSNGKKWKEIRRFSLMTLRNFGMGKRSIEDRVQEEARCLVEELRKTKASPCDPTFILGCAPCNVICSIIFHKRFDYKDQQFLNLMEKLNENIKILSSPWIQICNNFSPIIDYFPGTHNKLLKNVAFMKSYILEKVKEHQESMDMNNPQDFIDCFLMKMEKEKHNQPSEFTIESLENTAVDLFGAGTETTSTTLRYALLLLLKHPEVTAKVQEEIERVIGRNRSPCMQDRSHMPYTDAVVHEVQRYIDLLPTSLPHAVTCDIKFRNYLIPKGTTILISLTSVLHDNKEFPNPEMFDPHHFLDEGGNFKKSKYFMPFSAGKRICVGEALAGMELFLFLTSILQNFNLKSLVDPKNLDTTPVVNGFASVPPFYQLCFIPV
Sequence of Voltage-gated inwardly rectifying potassium channel KCNH2 (Q12809 whole entry): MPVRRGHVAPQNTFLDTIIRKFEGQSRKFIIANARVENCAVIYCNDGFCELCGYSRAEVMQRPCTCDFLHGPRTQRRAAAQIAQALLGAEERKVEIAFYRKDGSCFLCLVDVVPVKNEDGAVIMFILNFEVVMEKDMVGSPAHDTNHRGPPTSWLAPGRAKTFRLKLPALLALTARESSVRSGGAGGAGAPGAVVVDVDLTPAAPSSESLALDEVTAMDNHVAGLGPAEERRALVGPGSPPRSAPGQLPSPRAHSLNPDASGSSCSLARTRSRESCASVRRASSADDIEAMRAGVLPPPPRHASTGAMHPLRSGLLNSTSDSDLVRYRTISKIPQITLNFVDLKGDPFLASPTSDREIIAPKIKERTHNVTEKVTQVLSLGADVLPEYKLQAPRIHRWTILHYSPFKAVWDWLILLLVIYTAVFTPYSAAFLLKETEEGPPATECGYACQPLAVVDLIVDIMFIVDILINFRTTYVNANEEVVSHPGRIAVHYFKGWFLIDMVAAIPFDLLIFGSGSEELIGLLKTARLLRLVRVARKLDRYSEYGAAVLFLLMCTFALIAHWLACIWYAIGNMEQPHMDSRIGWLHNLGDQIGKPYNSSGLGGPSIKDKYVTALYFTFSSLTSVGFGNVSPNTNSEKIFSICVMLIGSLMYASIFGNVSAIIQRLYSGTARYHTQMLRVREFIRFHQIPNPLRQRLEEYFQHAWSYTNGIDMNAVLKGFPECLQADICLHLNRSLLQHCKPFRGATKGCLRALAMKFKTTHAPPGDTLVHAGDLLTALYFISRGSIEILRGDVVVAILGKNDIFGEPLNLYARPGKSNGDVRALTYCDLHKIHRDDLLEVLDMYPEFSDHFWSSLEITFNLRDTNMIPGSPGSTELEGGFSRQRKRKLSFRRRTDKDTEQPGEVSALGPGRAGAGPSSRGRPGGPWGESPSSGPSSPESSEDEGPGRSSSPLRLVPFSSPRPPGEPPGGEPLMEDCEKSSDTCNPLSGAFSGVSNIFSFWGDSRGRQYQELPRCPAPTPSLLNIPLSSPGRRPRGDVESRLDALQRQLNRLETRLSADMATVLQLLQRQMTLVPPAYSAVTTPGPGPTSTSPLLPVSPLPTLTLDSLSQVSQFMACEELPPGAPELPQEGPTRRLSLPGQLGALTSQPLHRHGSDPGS
Sequence of Cytochrome P450 2D6 (P10635 whole entry): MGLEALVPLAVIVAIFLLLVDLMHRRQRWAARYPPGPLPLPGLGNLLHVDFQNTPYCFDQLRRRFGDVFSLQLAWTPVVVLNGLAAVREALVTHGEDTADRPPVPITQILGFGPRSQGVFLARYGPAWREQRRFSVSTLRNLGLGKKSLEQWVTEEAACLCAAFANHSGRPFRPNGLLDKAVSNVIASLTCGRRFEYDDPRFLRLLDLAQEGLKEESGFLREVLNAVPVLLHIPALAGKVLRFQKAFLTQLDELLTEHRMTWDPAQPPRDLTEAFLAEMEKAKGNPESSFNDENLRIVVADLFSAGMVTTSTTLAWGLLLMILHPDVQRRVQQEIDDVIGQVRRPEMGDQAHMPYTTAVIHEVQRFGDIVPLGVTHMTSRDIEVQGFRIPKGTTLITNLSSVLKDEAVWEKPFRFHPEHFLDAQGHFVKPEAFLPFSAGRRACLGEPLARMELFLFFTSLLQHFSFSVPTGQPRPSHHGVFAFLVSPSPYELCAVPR

Consider `CCn1nc(C)cc1C(=O)/N=c1\[nH]c2cc(C(N)=O)ccc2n1C[C@@H](O)c1ccccc1`, for which, in data set [1], the EC50 turned out to be 102 µM.

As to `Cc1ncccc1C(=O)Nc1nc2cc(C(N)=O)ccc2n1CCCCNC(=O)OC(C)(C)C`, the remaining at 0.5 h, 1 µM in [2] was 27.9%; in data set [15], 18.1%. The remaining at 4 h, 5 µM was over 99.9% in data set [3] and 99.5% in data set [12]. In addition, the Activity result in data set [4], in data set [7] and in data set [25] was “Non-Toxic” throughout. The fraction unbound in data set [5] is 0.0211; in [16] it was 0.0624. In addition, the IC50 in [6] was 28.3 µM; in data set [8], 16.5 µM; in data set [20] it was over 100 µM; in data set [23], over 100 µM; in data set [26], 8.8 µM; in [29] it was 10.5 µM. The molecule also registered a bioavailability in [9] of 5.23%. Further, the half-life in data set [10] is 13.3 h; in data set [18], 11.2 h. The AUC(0-t) worked out at 0.18 µg·h/mL in data set [11] and 0.88 µg·h/mL in [19]. Besides, the clearance in [13] is 5.73 L/h/kg. In addition, the values for the AUC(0-inf) in data set [14] and in [27] were 0.9 µg·h/mL and 0.21 µg·h/mL, respectively. In addition, the viability at 24 h in data set [17] amounted to 106%; in data set [28], 99.4%. Moreover, in data set [21], the Cmax stood at 0.11 µg/mL. The Vd in data set [22] came out at 11.7 L/kg. The Tmax in [24] stood at 0.42 h.
